Values after ≈ are worked out from the molar mass of the structure shown. Where two headings read alike, the source gives them in different places.
Key:
[1] = target: T1, human liver microsomal 2,3-oxidosqualene-lanosterol cyclase (OSC) (Homo sapiens, UniProt P48449); assay: Inhibition of human liver microsomal 2,3-oxidosqualene-lanosterol cyclase (OSC); format: biochemical; conditions: human liver microsomes; for IC50: concentration reducing conversion of MOS into lanosterol to 50% of control
T1 construct: Liver microsomes from a healthy volunteer were prepared in sodium phosphate buffer (pH 7.4); from tissue; host or cells: human liver microsomes from a healthy volunteer
T1 sequence (P48449 1-732): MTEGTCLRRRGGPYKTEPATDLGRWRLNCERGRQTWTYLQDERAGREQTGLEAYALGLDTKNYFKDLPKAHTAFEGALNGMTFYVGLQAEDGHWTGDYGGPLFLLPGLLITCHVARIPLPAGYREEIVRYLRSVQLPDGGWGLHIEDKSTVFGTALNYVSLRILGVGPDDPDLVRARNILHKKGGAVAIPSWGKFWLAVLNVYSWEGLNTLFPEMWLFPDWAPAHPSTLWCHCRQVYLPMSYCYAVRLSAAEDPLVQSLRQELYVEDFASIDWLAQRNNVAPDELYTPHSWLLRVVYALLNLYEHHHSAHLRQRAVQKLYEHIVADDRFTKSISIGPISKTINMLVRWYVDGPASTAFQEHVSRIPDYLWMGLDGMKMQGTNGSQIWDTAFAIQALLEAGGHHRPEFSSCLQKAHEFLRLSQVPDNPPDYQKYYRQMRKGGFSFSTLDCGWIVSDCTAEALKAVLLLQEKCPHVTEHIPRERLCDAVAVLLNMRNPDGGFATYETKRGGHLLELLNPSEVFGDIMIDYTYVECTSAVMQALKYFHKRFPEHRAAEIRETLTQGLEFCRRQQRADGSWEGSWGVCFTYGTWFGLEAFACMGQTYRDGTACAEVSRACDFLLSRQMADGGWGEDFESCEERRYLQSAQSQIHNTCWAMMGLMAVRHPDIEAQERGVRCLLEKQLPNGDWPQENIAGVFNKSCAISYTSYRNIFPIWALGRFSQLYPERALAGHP
Experimental: Inhibition of Human Liver Microsomal 2,3-Oxidosqualene-lanosterol Cyclase (OSC)
Liver microsomes from a healthy volunteer were prepared in sodium phosphate buffer (pH 7.4). The OSC activity was measured in the same buffer which also contained 1 mM EDTA and 1 mM dithiothreitol. The microsomes were diluted to 0.8 mg/ml protein in cold phosphate buffer. Dry [^14C]R,S-monooxidosqualene (MOS; 12.8 mCi/mmol) was diluted to 20 nCi/μl with ethanol and mixed with phosphate buffer-1% BSA (Bovine Serum Albumin). A stock solution of 1 mM test substance in DMSO was diluted to the desired concentration with phosphate buffer-1% BSA. 40 μl of microsomes were mixed with 20 μl of the solution of the test substance and the reaction was subsequently started with 20 μl of the [^14C]R,S-MOS solution. The final conditions were: 0.4 mg/ml of microsomal proteins and […] of [^14C]R,S-MOS in phosphate buffer, pH 7.4, containing 0.5% albumin, DMSO <0.1% and ethanol <2%, in a total volume of 80 μl.
After 1 hour at 37° C. the reaction was stopped by the addition of 0.6 ml of 10% KOH-methanol, 0.7 ml of water and 0.1 ml of hexane:ether (1:1, v/v) which contained 25 μg of non-radioactive MOS and 25 μg of lanosterol as the carrier. After shaking 1 ml of hexane:ether (1:1, v/v) was added to each test tube, these were again shaken and then centrifuged. The upper phase was transferred into a glass test tube, the lower phase was again extracted with hexane:ether and combined with the first extract. The entire extract was evaporated to dryness with nitrogen and the residue was suspended in 50 μl of hexane:ether and applied to a silica gel plate. Chromatographic separation was effected in hexane:ether (1:1, v/v) as the eluent. […] After drying radioactive MOS and lanosterol were observed on the silica gel plate. The ratio of MOS to lanosterol was determined from the radioactive bands in order to determine the OSC inhibition.
The test was carried out on the one hand with a constant test substance concentration of 100 nM and the percentage OSC inhibition against controls was calculated. In addition, the test was carried out with different test substance concentrations and subsequently the IC50 value was calculated, i.e. the concentration required to reduce the conversion of MOS into lanosterol to 50% of the control value.

plasma cholesterol = assay: Cholesterol lowering in fat-fed hamsters; format: in vivo; conditions: fat-fed male golden hamsters, treated 10 days, 200 μmol (about 70-120 mg/kg/ay) in diet, percent of the control animals
Experimental: Cholesterol Lowering in Fat-fed Hamsters. Male golden hamsters kept individually were pre-treated for 7 days with a diet containing grated coconut (40 cal. % fat). The animals were then divided into groups each comprising 5 animals. During the treatment the animals were maintained on the same diet. Each test substance was firstly homogenized in 9 ml of water and subsequently mixed with the milled diet. The controls received only feed converted into a paste with water. The animals were treated for 10 days with a test substance dosage of 200 μmol (about 70-120 mg/kg/ay). Blood samples (200 μl) were removed via the jugular vein under light anaesthesia on the last day of the pre-treatment and one day after the last administration of test substance. The plasma cholesterol concentration was determined using a calorimetric enzyme method. The plasma lipoproteins were separated by exclusion chromatography ([…] et al., Science Tools, 36, 1992, 10-12). The total cholesterol was determined in each fraction using a fluorometric enzyme method (Gamble et al., J. Lipid Res., 19, 1978, 1068-1071) in order to calculate the amount of cholesterol in the LDL and HDL fractions. The activity on plasma cholesterol and LDL and HDL cholesterol, expressed in percent of the control animals, for the products of Examples 8a and 12 is reproduced in the following Table: […]

Cryptococcus neoformans = assay: Antifungal activity in vitro, microdilution method; format: cell-based; conditions: growth inhibition, incubation at 27° C. for 48 hours, read-out: IC50 (mg/ml) for: C. neoformans after: 48 hours
Experimental: (§1) Antifungal Activity In Vitro The compounds were tested for antifungal activity against Candida albicans, Cryptococcus neoformans and Aspergillus fumigatus using a microdilution method on microtitre plates (96 wells per plate). Yeast supplemented with 1% glucose and 0.25% di-potassium phosphate was used for the three fungal strains. The fungal cells were inoculated at 3×10^4 CFU (Colony Forming Unit) in […] of medium per well. The medium contained increasing concentrations of test substance. After incubation at 27° C. for 24 or 48 hours the turbidity in each well was measured by a microtitre plate reader. The growth inhibition was calculated in comparison to a control (without test substance). The IC50 value given in the following Table is the concentration of test substance at which the growth is inhibited by 50%.

Aspergillus fumigatus = assay: Antifungal activity in vitro, microdilution method; format: cell-based; conditions: growth inhibition, incubation at 27° C. for 48 hours, read-out: IC50 (mg/ml) for: A. fumigatus after: 48 hours
Experimental: as §1

Candida albicans = assay: Antifungal activity in vitro, microdilution method; format: cell-based; conditions: growth inhibition
Experimental: as §1

[2] = constant test substance concentration of 100 nM, 1 hour at 37° C., against controls
[3] = incubation at 27° C. for 24 hrs., read-out: IC50 (mg/ml) for: C. albicans after: 24 hrs.
[4] = incubation at 27° C. for 48 hrs., read-out: IC50 (mg/ml) for: C. albicans after: 48 hrs.

Compound | IC50 [1] [µM] | Inhibition of OSC (%) [1, 2] [%] | inhibition at 0.1 µM [1, 2] [%] | IC50 (Cryptococcus neoformans) [mg/mL] | IC50 (Aspergillus fumigatus) [mg/mL] | IC50 (Candida albicans; [3]) [mg/mL] | IC50 (Candida albicans; [4]) [mg/mL] | HDL cholesterol (plasma cholesterol) [%] | LDL cholesterol (plasma cholesterol) [%] | Total cholesterol (plasma cholesterol) [%]
C=CCN(C)C/C=C/COc1ccc(C(C)(O)c2ccc(Br)cc2)cc1 (racemic) [Example 8a, (E)-(RS)-1-[4-[4-(allyl-methyl-amino)-but-2-enyloxy]-phenyl]-(4-bromo-phenyl)-ethanol] | 0.018 | 82 |  |  |  |  |  | −18 | −51 | −30
CN(C/C=C/COc1ccc(C(=O)c2ccc(Br)cc2)cc1)C1CC1 [Example 12, (E)-(4-bromo-phenyl)-[4-[4-(cyclopropyl-methyl-amino)-but-2-enyloxy]-phenyl]-methanone] | 0.019 |  | 84 |  |  |  |  | −23 | −54 | −25
C=CCN(C)C/C=C/CNc1ccc(C(=O)c2ccc(Br)cc2)cc1F [Example 29] | 0.0045 |  | 91 | < 0.00032 | 0.00071 (≈ 1.7 µM) | 0.00071 (≈ 1.7 µM) | 0.021 (≈ 50.3 µM) |  |  | 
C=CCN(C)CCCCCCOc1ccc(C(=O)c2ccc(Br)cc2)c(N)c1 [Example 36, [2-amino-4-[6-(allyl-methyl-amino)-hexyloxy]-phenyl]-(4-bromo-phenyl)-methanone] | 0.0089 |  | 92 | < 0.00032 | 0.0024 (≈ 5.39 µM) | < 0.00032 | 0.0011 (≈ 2.47 µM) |  |  | 

Further lines, with some results ahead:

IC50 [1] [µM] | Inhibition of OSC (%) [1, 2] [%] | inhibition at 0.1 µM [1, 2] [%] | IC50 (Cryptococcus neoformans) [mg/mL] | IC50 (Aspergillus fumigatus) [mg/mL] | IC50 (Candida albicans; [3]) [mg/mL] | IC50 (Candida albicans; [4]) [mg/mL] | Compound | HDL cholesterol (plasma cholesterol) [%] | LDL cholesterol (plasma cholesterol) [%] | Total cholesterol (plasma cholesterol) [%]
 |  |  | < 0.00032 | 0.0064 (≈ 14.8 µM) | < 0.00032 | 0.005 (≈ 11.6 µM) | C=CCN(C)CCCCCCOc1ccc(C(=O)c2ccc(Br)cc2)nc1 [Example 43b, [5-[6-(allyl-methyl-amino)-hexyloxy]-pyridin-2-yl]-(4-bromo-phenyl)-methanone] |  |  | 
 |  | 73 | 0.00069 (≈ 2.08 µM) | 0.0061 (≈ 18.4 µM) | < 0.00032 | 0.0065 (≈ 19.6 µM) | C=CCN(C)C/C=C(\C)CC/C=C(\C)CCC(=O)CCC=C(C)C [Example 54b, (9E,13E)-15-(allyl-methyl-amino)-2,9,13-trimethyl-pentadeca-2,9,13-trien-6-one] |  |  | 

From patent publication US6441177B1 (Hoffmann-La Roche Inc., priority 1995, dated 2002)
